Experiment [1] concerns TNBS colitis. Briefly: Macroscopic injury score of distal colon in TNBS colitis, rectal (enema) treatment. It is filed as in vivo, Male Sprague Dawley rats. The following applies: 11 days after TNBS, 8 days of daily rectal treatment, mean±SEM, scale of Table 1, TNBS alone 5.9±0.6. From the text: (§1) Male Sprague Dawley rats weighing 200-250 grams were housed in the animal facility in cages containing contact bedding. Rats were deprived of food but not water for 24 hrs prior to the induction of colitis. Institutional approval for experimental protocols was provided by the research and animal care committees of the Research Services at the Oklahoma City Veterans Administration Medical Center.
(§2) Fasted animals were lightly anesthetized with isoflurane and then subjected to enema administration of TNBS and subsequently study drugs. The experimental protocol is similar to that previously described (20). The tip of polyethylene catheter was advanced transanally 8 cm to the distal colon and a single dose of TNBS (Sigma, St. Louis, Mo.), was instilled intraluminally (15 mg of TNBS dissolved in a 0.6 ml volume of 50% ethanol) to induce colitis. Following the administration of TNBS the animals were maintained in a head-down position for approximately 60 seconds to prevent leakage of the infusate.
Three days after TNBS dosing rats were randomly assigned to receive one of the following treatments by enema in a manner similar to that used for TNBS administration. […]
Inflammation was present if the mucosa was erythematous. […] Once macroscopic damage was assessed full thickness colonic tissue samples were taken from inflamed areas and processed for histology.

The subject of experiment [2] is TNBS colitis. The experiment can be described thus: Microscopic (histological) injury of distal colon in TNBS colitis, rectal (enema) treatment. It is filed as in vivo, Male Sprague Dawley rats.
Source text: as §1, §2
Three days after TNBS dosing rats were randomly assigned to receive one of the following treatments by enema in a manner similar to that used for TNBS administration. The TNBS treated animals received one of the following therapies 5-ASA (100 mg/kg) alone or 5-ASA in combination with one of the following: vitamin C (100 mg/kg), phenyl butylnitrone (PBN; 30 mg/kg) and vitamin E (a tocopherol; 50 mg/kg solubilized in DMSO). The doses of selected antioxidants were derived from the literature in which these agents had been used in experimental models of disease or IBD (19, 22, 23). Comparator groups included TNBS dosed rats that received 8 doses of rectal saline and saline treated controls. Rats were treated for 8 days and then sacrificed.
Histological assessment was used to measure colonic injury. Colonic tissue samples taken from the distal colon were immersed in 10% phosphate buffered formalin and subsequently embedded in paraffin. Sections of 3 micron thickness were stained with hematoxylin and eosin. The slides were then evaluated by a pathologist for epithelial damage, architectural changes, polymorphonuclear leukocyte (PMN) infiltration, mononuclear cell infiltration, and ulceration. The microscopic features of colitis were graded on a 0-3 scale with 0 being normal and 3 representing severe or most intense abnormality. In addition to scoring individual features of colitis, an aggregate score of colitis for each rat was tabulated by adding together individual parameter scores, thus, providing a global assessment of colitis.

The test system of another experiment is MPO activity. Briefly: Colonic inflammation by MPO assay in distal colon tissue, TNBS colitis. It is filed as in vivo, Male Sprague Dawley rats. Particulars: 11 days after TNBS, 8 days of treatment; mean±SEM; TNBS colitis 703+130. From the text: Fasted animals were lightly anesthetized with isoflurane and then subjected to enema administration of TNBS and subsequently study drugs. The experimental protocol is similar to that previously described (20). The tip of polyethylene catheter was advanced […] 8 cm to the distal colon and a single dose of TNBS (Sigma, St. […] Following the administration of TNBS the animals were maintained in a head-down position for approximately 60 seconds to prevent leakage of the infusate. Three days after TNBS dosing rats were randomly assigned to receive one of the following treatments by enema in a manner similar to that used for TNBS administration. The TNBS treated animals received one of the following therapies 5-ASA (100 mg/kg) alone or 5-ASA in combination with one of the following: vitamin C (100 mg/kg), phenyl butylnitrone (PBN; 30 mg/kg) and vitamin E (a tocopherol; 50 mg/kg solubilized in DMSO). The doses of selected antioxidants were derived from the literature in which these agents had been used in experimental models of disease or IBD (19, 22, 23). Comparator groups included TNBS dosed rats that received 8 doses of rectal saline and saline treated controls. Rats were treated for 8 days and then sacrificed. MPO activity was measured in colonic tissue samples by colorimetric assay. […] The absorbance changes were read at 450 nm and recorded. Results are expressed as nanograms per gram of tissue. […]

Experiment [3] deals with cytokine gene expression (IL-1A, IL-1B, 1L-04, IL-6 and TNFα). Particulars: similarly designed studies; cited from earlier work.
Setting [4] is: distal colonic specimen, 8 days of topical treatment begun 3 days after TNBS.

For the compound `Nc1ccc(O)c(C(=O)O)c1` [5-ASA, 5-aminosalicylic acid], the macroscopic injury score with TNBS colitis [1] turned out to be 3.8±0.4. Besides, the “global microscopic injury score” value in the experiment with TNBS colitis [2] (distal colon, 11 days after TNBS, 8 days of daily rectal treatment, mean±SEM, sum of indices graded 0-3, TNBS alone 13.3±0.5) was determined as 9.1±1.0. Further, in the experiment on TNBS colitis [2] (setting [4]), the “inflammation in representative photomicrograph” value is “mild inflammation in the submucosa” and the “mucosal ulceration in representative photomicrograph” value is on record as “an area of mucosal ulceration”. In addition, the “reduction of global microscopic colitis vs TNBS” value in the experiment on TNBS colitis [2] (printed as reduction/decrease) came to 31%. Further, the “MPO activity in the distal colon” value with MPO activity was 354±81 ng/gm. Further, the “cytokine gene expression elicited by TNBS” value in experiment [3] is “did not achieve this degree of statistical distinction”.
Turning to `CC(=O)N[C@@H](CS)C(=O)O` [NAC, N-acetylcysteine], the “cytokine gene expression elicited by TNBS” value in experiment [3] was “did not achieve this degree of statistical distinction”.

These data come from patent US20110071117A1, “COMBINATIONS OF ANTIOXIDANTS AND ANTI-INFLAMMATORY DRUGS IN THE TREATMENT OF INFLAMMATORY BOWEL DISEASE” (The Board of Regents of the University of Oklahoma, priority 2008, published 2011).
